The target in one experiment is hEP4 (Homo sapiens, UniProt P35408). Put plainly: Radioligand binding, EP4 receptor. Details: expressed in transfected cells; host or cells: HEK-293. To be noted: [3H]PGE2, HEK-293 cells expressing EP4. On the procedure:
(§1) HEK-293 cells stably expressing the human or feline FP receptor, or EP1, EP2, or EP4 receptors were washed with TME buffer, scraped from the bottom of the flasks, and homogenized for 30 sec using a Brinkman PT 10/35 polytron. TME buffer was added to achieve a final 40 ml volume in the centrifuge tubes (the composition of TME is 100 mM TRIS base, 20 mM MgCl2, […]; 10N HCl is added to achieve a pH of 7.4).
(§2) The cell homogenate was centrifuged at 19000 r.p.m. for 20 min at 4° C. using a Beckman Ti-60 rotor. The resultant pellet was resuspended in TME buffer to give a final 1 mg/ml protein concentration, as determined by Biorad assay. Radioligand binding competition assays vs. [3H-] 17-phenyl PGF2, (5 nM) were performed in a 100 μl volume for 60 min. Binding reactions were started by adding plasma membrane fraction. The reaction was terminated by the addition of 4 ml ice-cold TRIS-HCl buffer and rapid filtration through glass fiber GF/B filters using a Brandel cell harvester. The filters were washed 3 times with ice-cold buffer and oven dried for one hour.
(§3) [^3H-] PGE2 (specific activity 180 Ci mmol) was used as the radioligand for EP receptors. [^3H] 17-phenyl PGF2, was employed for FP receptor binding studies. Binding studies employing EP1, EP2, EP4 and FP receptors were performed in duplicate in at least three separate experiments. A […] assay volume was used. Incubations were for 60 min at 25° C. and were terminated by the addition of 4 ml of ice-cold 50 mM TRIS-HCl, followed by rapid filtration through Whatman GF/B filters and three additional 4 ml washes in a cell harvester (Brandel). Competition studies were performed using a final concentration of 5 nM [^3H]-PGE2, or 5 nM [^3H] 17-phenyl PGF2, and non-specific binding determined with 10^−5M of unlabeled PGE2, or 17-phenyl PGF2α, according to receptor subtype studied.

Experiment [1] addresses T1, hEP2 (Homo sapiens, UniProt P43116). The experiment is described as follows: Competition binding, [3H]PGE2, human EP2 receptors. Details: expressed in transfected cells; host or cells: HEK 293. To be noted: [3H]PGE2, HEK 293 cells stably expressing human EP2; read-out: hEP2 Ki. On the procedure:
Competition binding experiments were performed in a medium containing Hank's balanced salt solution, Hepes 20 mM, pH 7.3, membranes (˜60 μg protein) or 2×10^5 cells from HEK 293 cells stably expressing human EP2 receptors, [^3H]PGE2 (10 nM) and various concentrations of test compounds in a total volume of 300 μl. Reaction mixtures were incubated at 23° C. for 60 min, and were filtered over Whatman GF/B filters under vacuum. Filters were washed three times with 5 ml ice-cold buffer containing 50 mM Tris/HCl (pH 7.3). Non-specific binding was estimated in the presence of excess unlabeled PGE2 (10 μM). Binding data fitted to the binding model for a single class of binding sites, using nonlinear regression analysis. IC50 values thus obtained were converted to Ki using the equation of Ki=(IC50/(1+[L]/KD) where [L] represents PGE2 concentration (10 nM) and KD the dissociation constant for [^3H]PGE2 at human EP2 receptors (40 nM).
as §1, §2, §3

Experiment [2] addresses T1, hEP2. Put plainly: FLIPR calcium signal, hEP2. Format: cell-based. The arrangement: expressed in transfected cells; host or cells: HEK-293(EBNA). To be noted: HEK-293(EBNA) cells expressing hEP2/Gqs5. The procedure: Methods for FLIPR™ Studies
HEK-293(EBNA) cells, stably expressing one type or subtype of recombinant human prostaglandin receptors (prostaglandin receptors expressed: hDP/Gqs5; hEP1; hEP2/Gqs5; hEP3A/Gqi5; hEP4/Gqs5; hFP; hIP; hTP), were cultured in 100 mm culture dishes in high-glucose DMEM medium containing 10% fetal bovine serum, 2 mM 1-glutamine, 250 μg/ml geneticin (G418) and 200 μg/ml hygromycin B as selection markers, and 100 units/ml penicillin G, 100 μg/ml streptomycin and 0.25 μg/ml amphotericin B.
Cells were seeded at a density of 5×10^4 cells per well in Biocoat® Poly-D-lysine-coated black-wall, clear-bottom 96-well plates (Becton-Dickinson) and allowed to attach overnight in an incubator at 37° C. Cells were then washed two times with HBSS-HEPES buffer (Hanks Balanced Salt Solution without bicarbonate and phenol red, 20 mM HEPES, pH 7.4) using a Denley Cellwash plate washer (Labsystems). After 45 minutes of dye-loading in the dark, using the calcium-sensitive dye Fluo-4 AM at a final concentration of 2 μM, plates were washed four times with HBSS-HEPES buffer to remove excess dye leaving 100 μl in each well. Plates were re-equilibrated to 37° C. for a few minutes.
Cells were excited with an Argon laser at 488 nm, and emission was measured through a 510-570 nm bandwidth emission filter (FLIPR™, Molecular Devices, Sunnyvale, Calif.). Drug solution was added in a 50 μl volume to each well to give the desired final concentration. The peak increase in fluorescence intensity was recorded for each well. On each plate, four wells each served as negative (HBSS-HEPES buffer) and positive controls (standard agonists: BW245C (hDP); PGE2 (hEP1; hEP2/Gqs5; hEP3A/Gqi5; hEP4/Gqs5); PGF2α (hFP); carbacyclin (hIP); U-46619 (hTP), depending on receptor). The peak fluorescence change in each drug-containing well was then expressed relative to the controls.
Compounds were tested in a high-throughput (HTS) or concentration-response (CoRe) format. In the HTS format, forty-four compounds per plate were examined in duplicates at a concentration of 10^−5 M. To generate concentration-response curves, four compounds per plate were tested in duplicates in a concentration range between 10^−5 and 10^−11 M. The duplicate values were averaged. In either, HTS or CoRe format each compound was tested on at least 3 separate plates using cells from different passages to give an n≧3.

The target of experiment [3] is T1, hEP2. Put plainly: cAMP assay, hEP2. In kind it is cell-based. (cAMP levels reflect the balance of adenylyl cyclase and phosphodiesterase activity.)

Usually Ki stands for a dissociation constant, usually derived from enzyme kinetics or from competition with a known ligand. One may read the EC50 as the concentration that produces a half-maximal response.

hEP4, sequence (P35408 whole entry): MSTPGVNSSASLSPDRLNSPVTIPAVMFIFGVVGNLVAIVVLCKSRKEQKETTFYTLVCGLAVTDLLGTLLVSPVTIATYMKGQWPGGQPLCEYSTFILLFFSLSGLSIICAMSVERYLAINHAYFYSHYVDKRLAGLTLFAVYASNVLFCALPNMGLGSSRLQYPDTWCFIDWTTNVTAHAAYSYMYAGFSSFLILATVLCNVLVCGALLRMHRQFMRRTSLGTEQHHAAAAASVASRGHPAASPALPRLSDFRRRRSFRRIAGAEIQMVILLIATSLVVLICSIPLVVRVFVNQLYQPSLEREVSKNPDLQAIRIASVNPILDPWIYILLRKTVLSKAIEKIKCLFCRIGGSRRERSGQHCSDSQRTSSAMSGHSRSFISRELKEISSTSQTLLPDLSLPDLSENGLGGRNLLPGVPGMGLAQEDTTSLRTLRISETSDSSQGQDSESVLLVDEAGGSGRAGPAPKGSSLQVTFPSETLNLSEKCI
T1 sequence (P43116 whole entry): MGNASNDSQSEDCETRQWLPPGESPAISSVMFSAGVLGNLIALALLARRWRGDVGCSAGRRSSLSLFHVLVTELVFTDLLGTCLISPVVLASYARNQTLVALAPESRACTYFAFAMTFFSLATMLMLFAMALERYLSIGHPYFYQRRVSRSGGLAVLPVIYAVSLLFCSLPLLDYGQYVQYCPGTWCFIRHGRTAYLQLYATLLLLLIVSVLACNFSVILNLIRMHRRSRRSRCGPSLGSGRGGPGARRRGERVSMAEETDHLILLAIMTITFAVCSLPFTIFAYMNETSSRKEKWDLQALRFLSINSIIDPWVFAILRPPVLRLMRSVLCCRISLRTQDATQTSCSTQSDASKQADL

Take `CC(C)(c1ccccc1)c1ccc(OC[C@@H]2[C@@H](C/C=C\CCCC(=O)O)[C@H](Cl)C[C@H]2O)cc1` [Example 31, (Z)-7-{(1R,2S,3R,5R)-5-Chloro-3-hydroxy-2-[4-(1-methyl-1-phenyl-ethyl)-phenoxymethyl]-cyclopentyl}-hept-5-enoic acid]: the Ki at hEP4 was 1740 nM; on hEP2 [1] it was above 10000 nM. At hEP2 [2], the EC50 was above 10000 nM.

`O=Cc1ccc(OC[C@@H]2[C@@H](C/C=C\CCCC(=O)O)[C@H](Cl)C[C@H]2O)cc1` [Example 42, (Z)-7-[(1R,2S,3R,5R)-5-Chloro-2-(4-formyl-phenoxymethyl)-3-hydroxy-cyclopentyl]-hept-5-enoic acid]: the EC50 was 18 nM at hEP2 [3] and above 10000 nM on hEP2 [2]. The values for the Ki on hEP4 and at hEP2 [1] were above 10000 nM and 1500 nM, respectively.

As to `CCCC(O)c1ccc(OC[C@@H]2[C@@H](C/C=C\CCCC(=O)O)[C@H](Cl)C[C@H]2O)cc1` (stereo partly drawn) [Example 44, (Z)-7-{(1R,2S,3R,5R)-5-Chloro-3-hydroxy-2-[4-(1-hydroxy-butyl)-phenoxymethyl]-cyclopentyl}-hept-5-enoic acid], the EC50 on hEP2 [3] was found to be 66 nM; at hEP2 [2] it was 1100 nM. Besides, the results for the Ki at hEP4 and on hEP2 [1] were above 10000 nM and 2730 nM, respectively.

Turning to `CCCC(OC)c1ccc(OC[C@@H]2[C@@H](C/C=C\CCCC(=O)O)[C@H](Cl)C[C@H]2O)cc1` (stereo partly drawn) [Example 45, (Z)-7-{(1R,2S,3R,5R)-5-Chloro-3-hydroxy-2-[4-(1-methoxy-butyl)-phenoxymethyl]-cyclopentyl}-hept-5-enoic acid], the results for the EC50 at hEP2 [3] and on hEP2 [2] were 47 nM and 661 nM, respectively. The inhibition constant Ki was determined as 5280 nM at hEP4 and 904 nM at hEP2 [1].

Consider `CCCCCC(O)c1ccc(OC[C@@H]2[C@@H](C/C=C\CCCC(=O)O)[C@H](Cl)C[C@H]2O)cc1` (stereo partly drawn) [Example 46, (Z)-7-{(1R,2S,3R,5R)-5-Chloro-3-hydroxy-2-[4-(1-hydroxy-hexyl)-phenoxymethyl]-cyclopentyl}-hept-5-enoic acid], for which the EC50 on hEP2 [3] stood at 119 nM; at hEP2 [2], 531 nM. Moreover, the Ki on hEP4 was 2650 nM; on hEP2 [1], 2350 nM.

`CC(O)c1ccc(OC[C@@H]2[C@@H](C/C=C\CCCC(=O)O)[C@H](Cl)C[C@H]2O)cc1` (stereo partly drawn) [Example 47, (Z)-7-{(1R,2S,3R,5R)-5-Chloro-3-hydroxy-2-[4-(1-hydroxy-ethyl)-phenoxymethyl]-cyclopentyl}-hept-5-enoic acid]: the figures for the EC50 at hEP2 [3] and on hEP2 [2] were 124 nM and 1940 nM, respectively. Moreover, the Ki on hEP4 is above 10000 nM; at hEP2 [1], 5290 nM.

As to `O=C(O)CCC/C=C\C[C@@H]1[C@@H](COc2cccc(CO)c2)[C@H](O)C[C@H]1Cl` [Example 49, (Z)-7-[(1R,2S,3R,5R)-5-Chloro-3-hydroxy-2-(3-hydroxymethyl-phenoxymethyl)-cyclopentyl]-hept-5-enoic acid], the EC50 at hEP2 [3] amounted to 14 nM; at hEP2 [2] it was 374 nM. The Ki at hEP4 was above 10000 nM; on hEP2 [1], 207 nM.

Take `CCCCCC(O)c1cccc(OC[C@@H]2[C@@H](C/C=C\CCCC(=O)O)[C@H](Cl)C[C@H]2O)c1` (stereo partly drawn) [Example 50, (Z)-7-{(1R,2S,3R,5R)-5-Chloro-3-hydroxy-2-[3-(1-hydroxy-hexyl)-phenoxymethyl]-cyclopentyl}-hept-5-enoic acid]: the EC50 at hEP2 [3] is 68 nM; on hEP2 [2], 463 nM. Also, the Ki turned out to be 1130 nM at hEP4 and 826 nM at hEP2 [1].

As to `CC(C)C(O)c1cccc(OC[C@@H]2[C@@H](C/C=C\CCCC(=O)O)[C@H](Cl)C[C@H]2O)c1` (stereo partly drawn) [Example 51, (Z)-7-{(1R,2S,3R,5R)-5-Chloro-3-hydroxy-2-[3-(1-hydroxy-2-methyl-propyl)-phenoxymethyl]-cyclopentyl}-hept-5-enoic acid], the figures for the EC50 at hEP2 [3] and at hEP2 [2] were 39 nM and 196 nM, respectively. Besides, the Ki on hEP4 was above 10000 nM; on hEP2 [1], 772 nM.

As for `O=C(O)CCC/C=C\C[C@@H]1[C@@H](COc2cccc(C(O)Cc3ccccc3)c2)[C@H](O)C[C@H]1Cl` (stereo partly drawn) [Example 53, (Z)-7-{(1R,2S,3R,5R)-5-Chloro-3-hydroxy-2-[3-(1-hydroxy-2-phenyl-ethyl)-phenoxymethyl]-cyclopentyl}-hept-5-enoic acid], the concentration giving a half-maximal response (EC50) on hEP2 [3] was 496 nM; on hEP2 [2], 1730 nM. The inhibition constant Ki at hEP4 came to 1850 nM; at hEP2 [1], 1750 nM.

With `CC(O)c1cccc(OC[C@@H]2[C@@H](C/C=C\CCCC(=O)O)[C@H](Cl)C[C@H]2O)c1` (stereo partly drawn) [Example 54, (Z)-7-{(1R,2S,3R,5R)-5-Chloro-3-hydroxy-2-[3-(1-hydroxy-ethyl)-phenoxymethyl]-cyclopentyl}-hept-5-enoic acid], the EC50 on hEP2 [3] amounted to 40 nM; on hEP2 [2] it was 121 nM. In addition, the values for the Ki on hEP4 and on hEP2 [1] were above 10000 nM and 701 nM, respectively.

In the case of `Cc1cc(OC[C@@H]2[C@@H](C/C=C\CCCC(=O)O)[C@H](Cl)C[C@H]2O)cc(C)c1CO` [Example 56, (Z)-7-[(1R,2S,3R,5R)-5-Chloro-3-hydroxy-2-(4-hydroxymethyl-3,5-dimethyl-phenoxymethyl)-cyclopentyl]-hept-5-enoic acid], the figures for the EC50 on hEP2 [3] and at hEP2 [2] were 1.8 nM and 27 nM, respectively. For the same molecule, the figures for the Ki at hEP4 and on hEP2 [1] were 2200 nM and 64 nM, respectively.

For `COCc1c(C)cc(OC[C@@H]2[C@@H](C/C=C\CCCC(=O)O)[C@H](Cl)C[C@H]2O)cc1C` [Example 57, (Z)-7-[(1R,2S,3R,5R)-5-Chloro-3-hydroxy-2-(4-methoxymethyl-3,5-dimethyl-phenoxymethyl)-cyclopentyl]-hept-5-enoic acid], the results for the EC50 at hEP2 [3] and at hEP2 [2] were 23 nM and 142 nM, respectively. The Ki on hEP4 turned out to be 1660 nM; at hEP2 [1], 195 nM.

The record behind these values is patent US7405240B2, “Substituted cyclopentanes or cyclopentanones as therapeutic agents” (Allergan, Inc., priority 2006, dated 2008).
